# Tested on: Genes belonging to other category
# Assay: DNA chip mRNA expression in yeast, genes belonging to other category (Table 9)
# Format: cell-based, Saccharomyces cerevisiae S288C
# In short: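 Expression change after 2 h toxicant exposure (growth-inhibiting, sub-lethal) of log-phase S. cerevisiae S288C at 25° C. Oligo-dT-purified mRNA was labeled with Cy3-dUTP or Cy5-dUTP and hybridized >12 h at 65° C. to a genome-wide chip; ratio of scanned fluorescence to control.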
smiles,measurement,setting,value
"C=CC=O [(14), acrolein]",The level of expressed mRNA in the presence of chemical substance/The level of expressed mRNA in the absence of chemical substance,yeast gene YMR104C,1.1
same,The level of expressed mRNA in the presence of chemical substance/The level of expressed mRNA in the absence of chemical substance,yeast gene YMR219W,0.5
same,The level of expressed mRNA in the presence of chemical substance/The level of expressed mRNA in the absence of chemical substance,yeast gene YMR226C,1.6
same,The level of expressed mRNA in the presence of chemical substance/The level of expressed mRNA in the absence of chemical substance,yeast gene YMR262W,0.9
same,The level of expressed mRNA in the presence of chemical substance/The level of expressed mRNA in the absence of chemical substance,yeast gene YMR275C,0.8
same,The level of expressed mRNA in the presence of chemical substance/The level of expressed mRNA in the absence of chemical substance,yeast gene YMR276W,1.2
same,The level of expressed mRNA in the presence of chemical substance/The level of expressed mRNA in the absence of chemical substance,yeast gene YMR314W,1.0
same,The level of expressed mRNA in the presence of chemical substance/The level of expressed mRNA in the absence of chemical substance,yeast gene YNL006W,0.8
same,The level of expressed mRNA in the presence of chemical substance/The level of expressed mRNA in the absence of chemical substance,yeast gene YNL007C,0.4
same,The level of expressed mRNA in the presence of chemical substance/The level of expressed mRNA in the absence of chemical substance,yeast gene YNL093W,1.1
same,The level of expressed mRNA in the presence of chemical substance/The level of expressed mRNA in the absence of chemical substance,yeast gene YNL333W,1.9
same,The level of expressed mRNA in the presence of chemical substance/The level of expressed mRNA in the absence of chemical substance,yeast gene YNR007C,1.5
same,The level of expressed mRNA in the presence of chemical substance/The level of expressed mRNA in the absence of chemical substance,yeast gene YNR010W,1.3
same,The level of expressed mRNA in the presence of chemical substance/The level of expressed mRNA in the absence of chemical substance,yeast gene YNR069C,2.1
same,The level of expressed mRNA in the presence of chemical substance/The level of expressed mRNA in the absence of chemical substance,yeast gene YOL013C,0.9
same,The level of expressed mRNA in the presence of chemical substance/The level of expressed mRNA in the absence of chemical substance,yeast gene YOL038W,2.1
same,The level of expressed mRNA in the presence of chemical substance/The level of expressed mRNA in the absence of chemical substance,yeast gene YOL109W,1.4
same,The level of expressed mRNA in the presence of chemical substance/The level of expressed mRNA in the absence of chemical substance,yeast gene YOL164W,1.3
same,The level of expressed mRNA in the presence of chemical substance/The level of expressed mRNA in the absence of chemical substance,yeast gene YOR036W,1.2
same,The level of expressed mRNA in the presence of chemical substance/The level of expressed mRNA in the absence of chemical substance,yeast gene YOR117W,1.0
same,The level of expressed mRNA in the presence of chemical substance/The level of expressed mRNA in the absence of chemical substance,yeast gene YOR124C,0.8
same,The level of expressed mRNA in the presence of chemical substance/The level of expressed mRNA in the absence of chemical substance,yeast gene YOR132W,0.7
same,The level of expressed mRNA in the presence of chemical substance/The level of expressed mRNA in the absence of chemical substance,yeast gene YOR157C,2.2
same,The level of expressed mRNA in the presence of chemical substance/The level of expressed mRNA in the absence of chemical substance,yeast gene YOR181W,0.9
same,The level of expressed mRNA in the presence of chemical substance/The level of expressed mRNA in the absence of chemical substance,yeast gene YOR185C,2.1
same,The level of expressed mRNA in the presence of chemical substance/The level of expressed mRNA in the absence of chemical substance,yeast gene YOR198C,1.1
same,The level of expressed mRNA in the presence of chemical substance/The level of expressed mRNA in the absence of chemical substance,yeast gene YOR229W,1.0
same,The level of expressed mRNA in the presence of chemical substance/The level of expressed mRNA in the absence of chemical substance,yeast gene YOR257W,1.5
same,The level of expressed mRNA in the presence of chemical substance/The level of expressed mRNA in the absence of chemical substance,yeast gene YOR259C,1.2
same,The level of expressed mRNA in the presence of chemical substance/The level of expressed mRNA in the absence of chemical substance,yeast gene YOR261C,1.8
same,The level of expressed mRNA in the presence of chemical substance/The level of expressed mRNA in the absence of chemical substance,yeast gene YOR265W,2.5
same,The level of expressed mRNA in the presence of chemical substance/The level of expressed mRNA in the absence of chemical substance,yeast gene YOR288C,0.8
same,The level of expressed mRNA in the presence of chemical substance/The level of expressed mRNA in the absence of chemical substance,yeast gene YOR298W,2.1
same,The level of expressed mRNA in the presence of chemical substance/The level of expressed mRNA in the absence of chemical substance,yeast gene YOR327C,1.5
same,The level of expressed mRNA in the presence of chemical substance/The level of expressed mRNA in the absence of chemical substance,yeast gene YOR355W,0.6
same,The level of expressed mRNA in the presence of chemical substance/The level of expressed mRNA in the absence of chemical substance,yeast gene YOR362C,1.4
same,The level of expressed mRNA in the presence of chemical substance/The level of expressed mRNA in the absence of chemical substance,yeast gene YOR367W,1.5
same,The level of expressed mRNA in the presence of chemical substance/The level of expressed mRNA in the absence of chemical substance,yeast gene YOR383C,0.6
same,The level of expressed mRNA in the presence of chemical substance/The level of expressed mRNA in the absence of chemical substance,yeast gene YPL089C,0.8
same,The level of expressed mRNA in the presence of chemical substance/The level of expressed mRNA in the absence of chemical substance,yeast gene YPL109C,1.3
same,The level of expressed mRNA in the presence of chemical substance/The level of expressed mRNA in the absence of chemical substance,yeast gene YPL149W,1.0
same,The level of expressed mRNA in the presence of chemical substance/The level of expressed mRNA in the absence of chemical substance,yeast gene YPL154C,0.8
same,The level of expressed mRNA in the presence of chemical substance/The level of expressed mRNA in the absence of chemical substance,yeast gene YPL218W,1.5
same,The level of expressed mRNA in the presence of chemical substance/The level of expressed mRNA in the absence of chemical substance,yeast gene YPR015C,1.5
same,The level of expressed mRNA in the presence of chemical substance/The level of expressed mRNA in the absence of chemical substance,yeast gene YPR073C,1.5
same,The level of expressed mRNA in the presence of chemical substance/The level of expressed mRNA in the absence of chemical substance,yeast gene YPR103W,1.8
same,The level of expressed mRNA in the presence of chemical substance/The level of expressed mRNA in the absence of chemical substance,yeast gene YPR108W,1.0
same,The level of expressed mRNA in the presence of chemical substance/The level of expressed mRNA in the absence of chemical substance,yeast gene YPR185W,1.0

# Reference: US8192962B2, “Processes for detecting toxic substances” (Daikin Industries, Ltd., priority 2001, dated 2012)
